The results in this text go back to PubChem BioAssay AID330 (DTP/NCI, 2004).

This assay deals with P388 leukemia ip, CD2F1 mice, survival T/C. Kind of assay: NCI In Vivo Anticancer Drug Screen. Data for tumor model P388 Leukemia (intraperitoneal) in CD2F1 (CDF1) mice. The note with it: endpoint: median survival time, higher = longer survival. The gist of the method: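 Mice carrying the transplanted tumor received test compound or vehicle. Survival was recorded in each group, and the value is the treated-group measurement divided by that of the vehicle-treated control group.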

Setting [1] is: dose: 50.0 mg/kg/injection, schedule: Q01DX005 (ip), vehicle: saline with Tween-80.
[2] abbreviates: dose: 100.0 mg/kg/injection, schedule: Q01DX005 (ip), vehicle: saline with Tween-80.
[3] abbreviates: dose: 25.0 mg/kg/injection, schedule: Q01DX009 (ip), vehicle: saline.
The mark [4] stands for this setting: dose: 50.0 mg/kg/injection, schedule: Q01DX009 (ip), vehicle: saline.
Setting [5] is: dose: 100.0 mg/kg/injection, schedule: Q01DX009 (ip), vehicle: saline.
Setting [6] is: dose: 200.0 mg/kg/injection, schedule: Q01DX009 (ip), vehicle: saline.
The mark [7] stands for this setting: dose: 50.0 mg/kg/injection, schedule: Q01DX005 (ip), vehicle: Klucel (hydroxypropylcellulose) (HPC).
Where [8] appears, read: dose: 100.0 mg/kg/injection, schedule: Q01DX005 (ip), vehicle: Klucel (hydroxypropylcellulose) (HPC).
Setting [9] is: dose: 200.0 mg/kg/injection, schedule: Q01DX005 (ip), vehicle: Klucel (hydroxypropylcellulose) (HPC).
The mark [10] stands for this setting: dose: 50.0 mg/kg/injection, schedule: Q01DX009 (ip), vehicle: Klucel (hydroxypropylcellulose) (HPC).
The mark [11] stands for this setting: dose: 100.0 mg/kg/injection, schedule: Q01DX009 (ip), vehicle: Klucel (hydroxypropylcellulose) (HPC).

Each structure is given as a SMILES string. Where “and” joins values, the source holds several entries; their conditions need not be identical. Equal entries are not always repeated. Toxic doses and inconclusive results are not listed.

`O=S1(=O)C2CCC(Br)C1CCC2Br` (configuration not stated): the T/C by setting is: (dose: 1.56 mg/kg/injection, schedule: Q01DX005 (ip), vehicle: Klucel (hydroxypropylcellulose) (HPC)) 99 % of control; (dose: 3.12 mg/kg/injection, schedule: Q01DX005 (ip), vehicle: Klucel (hydroxypropylcellulose) (HPC)) 103 % of control; (dose: 6.25 mg/kg/injection, schedule: Q01DX005 (ip), vehicle: Klucel (hydroxypropylcellulose) (HPC)) 100 % of control.

Turning to `CN(CCc1ccccn1)c1ccc2c(c1)C(=O)c1ccccc1-2`, the T/C runs as follows: under setting [1], 100 % of control; under setting [2], 93 % of control.

As to `O=C1CC2C1C1C=CC2n2c(=O)n(-c3ccccc3)c(=O)n21` (configuration not stated), the T/C runs as follows: (dose: 12.5 mg/kg/injection, schedule: Q04DX002 (ip), vehicle: saline with Tween-80) 98 % of control; (dose: 25.0 mg/kg/injection, schedule: Q04DX002 (ip), vehicle: saline with Tween-80) 99 % of control; (dose: 50.0 mg/kg/injection, schedule: Q04DX002 (ip), vehicle: saline with Tween-80) 101 % of control.

Consider `O=S1(=O)CCC(N2CCCCC2)C1` (configuration not stated), for which the T/C under setting [3] was 102 % of control, the T/C under setting [4] is 94 % of control, the T/C under setting [5] is 104 % of control and the T/C under setting [6] is 98 % of control.

Turning to `O=c1[nH]nc(OCCO)c2ccccc12`, the T/C is 100 % of control under setting [7], 98 % of control under setting [8] and 99 % of control under setting [9].

Regarding `O=C(Nc1nccs1)Nc1cc(C(F)(F)F)ccc1Cl`, the T/C (dose: 25.0 mg/kg/injection, schedule: Q01DX009 (ip), vehicle: Klucel (hydroxypropylcellulose) (HPC)) was 102 % of control; the T/C under setting [10] was 108 % of control; the T/C under setting [11] is 97 % of control.

As for `O=C(O)CN(CCN(CC(=O)O)CC(=O)O)CC(=O)O.[Cd+2]`, the T/C is 97 % of control (dose: 1.56 mg/kg/injection, schedule: Q01DX009 (ip), vehicle: saline); 91 % of control (dose: 3.12 mg/kg/injection, schedule: Q01DX009 (ip), vehicle: saline); 91 % of control and 94 % of control (dose: 6.25 mg/kg/injection, schedule: Q01DX009 (ip), vehicle: saline); 92 % of control and 95 % of control (dose: 12.5 mg/kg/injection, schedule: Q01DX009 (ip), vehicle: saline); 92 % of control and 97 % of control under setting [3]; 88 % of control under setting [4].

With `CNC1=CC(=O)c2c(c3cc(OC(C)=O)ccc3n2C)C1=O`, the T/C was 99 % of control under setting [4], 99 % of control under setting [5] and 100 % of control under setting [6].

For `C/C(N=NC(=S)N1CCCCC1C)=C1\C=CC=CN1O` (configuration not stated), the T/C was 110 % of control under setting [1]; 97 % of control under setting [2]; 104 % of control (dose: 200.0 mg/kg/injection, schedule: Q01DX005 (ip), vehicle: saline with Tween-80).

For `CN(C)c1ccc2nc3ccc(=O)cc-3sc2c1`, the T/C was 100 % of control (dose: 12.5 mg/kg/injection, schedule: Q01DX009 (ip), vehicle: saline with Tween-80); 108 % of control (dose: 25.0 mg/kg/injection, schedule: Q01DX009 (ip), vehicle: saline with Tween-80); 108 % of control (dose: 50.0 mg/kg/injection, schedule: Q01DX009 (ip), vehicle: saline with Tween-80); 120 % of control and 122 % of control (dose: 100.0 mg/kg/injection, schedule: Q01DX009 (ip), vehicle: saline with Tween-80).

Regarding `CC1=N/C(=C\c2ccc(Br)cc2)C(=O)O1`, the T/C was 109 % of control under setting [7], 98 % of control under setting [8] and 112 % of control under setting [9].

As to `CSc1nc(COC(=O)NC(C)C)c(COC(=O)NC(C)C)n1C`, the T/C is, setting by setting: (dose: 12.5 mg/kg/injection, schedule: Q01DX005 (ip), vehicle: Klucel + Tween-80) 113 % of control; (dose: 25.0 mg/kg/injection, schedule: Q01DX005 (ip), vehicle: Klucel + Tween-80) 116 % of control; (dose: 100.0 mg/kg/injection, schedule: Q01DX005 (ip), vehicle: Klucel + Tween-80) 156 % of control and 163 % of control; (dose: 200.0 mg/kg/injection, schedule: Q01DX005 (ip), vehicle: Klucel + Tween-80) 184 % of control.

Turning to `COC1OC(C)C(=O)C2OC12` (configuration not stated), the T/C runs as follows: under setting [10], 112 % of control; under setting [11], 116 % of control.

Regarding `Nc1nc(N)c2nc(CN(CCO)c3ccc(C(=O)NC(CCC(=O)O)C(=O)O)cc3)cnc2n1` (configuration not stated), the T/C was 190 % of control (dose: 1.0 mg/kg/injection, schedule: Q01DX009 (ip), vehicle: Klucel (hydroxypropylcellulose) (HPC)); 153 % of control (dose: 1.2 mg/kg/injection, schedule: Q01DX009 (ip), vehicle: Klucel (hydroxypropylcellulose) (HPC)); 181 % of control (dose: 1.8 mg/kg/injection, schedule: Q01DX009 (ip), vehicle: Klucel (hydroxypropylcellulose) (HPC)); 205 % of control (dose: 2.0 mg/kg/injection, schedule: Q01DX009 (ip), vehicle: Klucel (hydroxypropylcellulose) (HPC)); 195 % of control (dose: 2.6 mg/kg/injection, schedule: Q01DX009 (ip), vehicle: Klucel (hydroxypropylcellulose) (HPC)); 204 % of control and 223 % of control (dose: 4.0 mg/kg/injection, schedule: Q01DX009 (ip), vehicle: Klucel (hydroxypropylcellulose) (HPC)). Besides, the T/C (dose: 6.0 mg/kg/injection, schedule: Q01DX009 (ip), vehicle: Klucel (hydroxypropylcellulose) (HPC)) was 92 % of control.

Take `N#CCN=NNc1ccc([N+](=O)[O-])cc1`: the T/C is 115 % of control (dose: 100.0 mg/kg/injection, schedule: Q01DX001 (ip), vehicle: Klucel (hydroxypropylcellulose) (HPC)); 107 % of control (dose: 200.0 mg/kg/injection, schedule: Q01DX001 (ip), vehicle: Klucel (hydroxypropylcellulose) (HPC)); 116 % of control (dose: 400.0 mg/kg/injection, schedule: Q01DX001 (ip), vehicle: Klucel (hydroxypropylcellulose) (HPC)).

In the case of `CCOC(=O)CCN(Cc1ccccc1)CC(C)C(=O)OC` (configuration not stated), the T/C was 100 % of control (dose: 100.0 mg/kg/injection, schedule: Q04DX003 (ip), vehicle: saline with Tween-80); 100 % of control (dose: 200.0 mg/kg/injection, schedule: Q04DX003 (ip), vehicle: saline with Tween-80); 100 % of control (dose: 400.0 mg/kg/injection, schedule: Q04DX003 (ip), vehicle: saline with Tween-80).

Turning to `Cc1noc2c1C(=O)c1ccccc1SC2`, the T/C (dose: 60.0 mg/kg/injection, schedule: Q01DX005 (ip), vehicle: saline with Tween-80) was 103 % of control; the T/C (dose: 120.0 mg/kg/injection, schedule: Q01DX005 (ip), vehicle: saline with Tween-80) was 94 % of control; the T/C (dose: 240.0 mg/kg/injection, schedule: Q01DX005 (ip), vehicle: saline with Tween-80) is 105 % of control.

As for `OCCn1nc2c(c1-c1ccncc1)CCCc1ccccc1-2`, the T/C was 97 % of control (dose: 100.0 mg/kg/injection, schedule: Q04DX002 (ip), vehicle: saline with Tween-80); 94 % of control (dose: 200.0 mg/kg/injection, schedule: Q04DX002 (ip), vehicle: saline with Tween-80); 94 % of control (dose: 400.0 mg/kg/injection, schedule: Q04DX002 (ip), vehicle: saline with Tween-80).

With `C1CN1c1nc(N2CC2)nc(N2CC2)n1`, the T/C by setting is: (dose: 0.05 mg/kg/injection, schedule: Q01DX009 (ip), vehicle: saline) 111 % of control; (dose: 0.13 mg/kg/injection, schedule: Q01DX009 (ip), vehicle: saline) 115 % of control; (dose: 0.2 mg/kg/injection, schedule: Q01DX009 (ip), vehicle: saline) 159 % of control; (dose: 0.25 mg/kg/injection, schedule: Q01DX009 (ip), vehicle: saline) 150 % of control and 169 % of control; (dose: 0.4 mg/kg/injection, schedule: Q01DX009 (ip), vehicle: saline) 235 % of control; (dose: 0.5 mg/kg/injection, schedule: Q01DX009 (ip), vehicle: saline) 106 % of control and 120 % of control and 246 % of control. Also, the T/C (dose: 1.0 mg/kg/injection, schedule: Q01DX009 (ip), vehicle: saline) was 88 % of control.

Turning to `c1ccc(CON(CCc2ccccn2)CCc2ccccn2)cc1`, the T/C is, setting by setting: (dose: 50.0 mg/kg/injection, schedule: Q01DX005 (ip), vehicle: saline) 97 % of control; (dose: 100.0 mg/kg/injection, schedule: Q01DX005 (ip), vehicle: saline) 98 % of control; (dose: 200.0 mg/kg/injection, schedule: Q01DX005 (ip), vehicle: saline) 98 % of control.
